Like-named read-outs stand apart in the source and are kept apart here.
Legend:
[1] = system: CYP1A1 mRNA levels in HT26; test: CYP1A1 Gene Expression Assay, mouse CRC cell line HT26; type: cell-based; conditions: for IC50: Mus musculus; for Mouse CYP1A1 % eff: efficacy given with the IC50
Method: Human and mouse colorectal cancer (CRC) cell lines, HT29 and HT26 respectively, American Type Culture Collection (ATCC) are plated in a sterile tissue culture treated 96-well plate (ThermoFisher) at 8.0×10^5 cells per well, and grown overnight at 37° C., 5% CO2 in DMEM complete (Gibco) in order to achieve confluence. After the incubation medium is aspirated off the cell monolayers, tissues are then washed with 200 μL of warmed PBS solution, and subsequently 190 μL of pre-warmed growth medium is added to each well. AhR antagonist of interest are diluted at a 20×concentration in growth medium containing 2% DMSO, and 10 μL of compound solutions are added to respective wells in triplicate. After 1 hr, AHR activating ligand, such as TCDD, kynurenine, ITE (2-(1H-indole-3-ylcarbonyl)-4-thiazolecarboxylic methyl ester), VAF347, BNF (beta-naphthoflavone), FICZ (6-formylindolo(3,2-b) carbazole or other AHR ligands, is added with or without AHR antagonist for 24 hours, after which media will be removed and stored at −80 C for later cytokine analysis. At the end of the incubation, medium is aspirated off the CRC cells, and the cells washed with 100 μL of cold PBS solution. RNA is extracted via the TaqMan™ Gene Expression Cells-to-CT™ Kit (ThermoFisher) according to the manufacturer's protocol. The QuantStudio 6 Flex (Applied Biosciences) is used to analyze mRNA levels of CYP1A1 using GAPDH as the endogenous control. TaqMan™ probe sets for both genes are acquired from ThermoFisher. Samples are run in triplicate and data is analyzed using the QuantStudio software and reported as linear and log 2(ΔΔCT) values. Statistical analysis is performed using a two-tailed t-test comparing CYP1A1 levels in the presence of each individual compound to the vehicle negative control. […] This assay can be used to confirm the inhibitory effect of the compounds prior to testing using an in vivo model.

[2] = In vivo PK study in male Sprague Dawley rats; conditions: for clearance / half-life / Vd / bioavailability / C0 / AUC(0-inf) / AUC(0-t) / Cmax / Tmax: male, Sprague Dawley, plasma; for Rat CL (% Qh) / clearance / half-life / Vd / bioavailability / C0 / AUC(0-inf) / AUC(0-t) / Cmax / Tmax: rat; for clearance: read-out: Rat CL; for Vd: read-out: Rat Vss; for AUC(0-inf): read-out: AUCInf Mean; for AUC(0-t): read-out: AUCLast Mean
Method: The studies were conducted in male Sprague Dawley rats, three rats per group, or male CD1 mice, three mice per group. Compounds were dosed 1.0 mg/Kg i.v. (vehicle ethanol: % PEG400 in deionized water, in proportions suitable for dosing a clear solution) and 3.0 mg/kg or 10 mg/kg p.o. (vehicle: 1% methyl cellulose: 1,500 cP in DI water (w/v)). A11 animals had free access to food and water. Rat i.v. PK time points: Plasma: 0.083, 0.25, 0.5, 1, 2, 4, 8 and 24 h; Rat p.o. PK time points: Plasma: 0.25, 0.5, 1, 2, 4, 8 and 24 h. Mouse i.v. PK time points: Plasma: 0.083, 0.25, 0.5, 1, 2, 4, 8, 24, and 48 h; Mouse p.o. PK time points: Plasma: 0.25, 0.5, 1, 2, 4, 8, 24, and 48 h. Concentrations of compound in the plasma samples were analyzed using a LC-MS/MS method. WinNonlin (Phoenix™, version 6.1) or other similar software was used for pharmacokinetic calculations.

[3] = target: T1, CYP3A4 (Homo sapiens, UniProt P08684); test: CYP Inhibition Assay in human liver microsomes, CYP3A4; type: in vitro ADME; conditions: pH 7.4
T1 construct: from tissue; host or cells: human liver microsomes (HLM)
Method: Stock solutions of test compounds were prepared in DMSO at the concentrations of 10 mM. Stock solution was diluted to 2 mM with acetonitrile. The final concentration of test compounds was 10 μM. For the stock solution preparation, if the positive control could not be well dissolved in the mixture of DMSO and acetonitrile (1:4) at the highest concentration, another mixture of acetonitrile and DMSO, the mixture of acetonitrile and H2O or DMSO will be used to dissolve the compound.
The substrate solutions are stored in a −20° C. freezer and warmed to room temperature prior to use.
Preparation of Phosphate Buffer (100 mmol/L, pH 7.4): To prepare the Solution A, 7.098 g of disodium hydrogen phosphate were weighed out and added into 500 mL of pure water, then sonicated to dissolve the content. To prepare the Solution B, 3.400 g of potassium dihydrogen phosphate were weighed out and added into 250 mL of pure water, then sonicated to dissolve the content. Solution A was placed on a stirrer and slowly Solution B was added into Solution A until the pH reached 7.4. Preparation of 10 mmol/L NADPH Solution: NADPH was dissolved at 8.334 mg/mL in phosphate buffer; the solution was freshly prepared prior to use.
The master solution was prepared according to Table 45. The incubation was carried out in 96 deep well plates. The following volumes were dispensed into each well of the incubation plate: 179 μL of the substrate and HLM mixture in phosphate buffer, 1 μL of the compound working solution, or vehicle (mixture of DMSO and acetonitrile (1:4)). The incubation plate was placed into the water bath and pre-warmed at 37° C. for 15 minutes before the reactions was started by the addition of 20 μL of 10 mmol/L NADPH solution in phosphate buffer. After the addition of NADPH, the incubation plate was incubated at 37° C. for corresponding time. The assay was performed in duplicate.
The reaction was quenched by the addition of 1.5 volume (300 μL) of cold acetonitrile containing 3% formic acid and internal standards (200 nM Labetalol, 200 nM Alprazolam and 200 nM tolbutamide). The plate was centrifuged at 3,220 g for 40 minutes. 100 μL of the supernatant was transferred to a new plate. The supernatant was diluted with 100 μL pure water. The samples were mixed well and analyzed using UPLC/MS/MS.
Data Analysis: The automatic peak integration areas are checked for all the samples. The Analyte Peak Area and Internal Standard Peak Area are exported into excel spreadsheet. The inhibition of each P450 enzyme in human liver microsomes is measured as the percentage decrease in the activity of marker metabolite formation compared to non-inhibited controls (=100% activity).
The percentage of remaining activity was calculated as follows: […]

[4] = intravenous, 1 mg/kg, in vivo DMPK profile
[5] = intravenous, 1 mg/kg, in vivo DMPK profile, read-out: Rat T1/2 (converted)
[6] = oral, 3 mg/kg, in vivo DMPK profile, read-out: Rat % F
[7] = rats, 1 mg/kg IV, read-out: T1/2 Mean (converted)
[8] = rats, PO, dosage of 3 mg/kg, read-out: Bioavailability
[9] = rats, PO, dosage of 3 mg/kg, read-out: T1/2 Mean (converted)

T1 sequence (P08684 whole entry): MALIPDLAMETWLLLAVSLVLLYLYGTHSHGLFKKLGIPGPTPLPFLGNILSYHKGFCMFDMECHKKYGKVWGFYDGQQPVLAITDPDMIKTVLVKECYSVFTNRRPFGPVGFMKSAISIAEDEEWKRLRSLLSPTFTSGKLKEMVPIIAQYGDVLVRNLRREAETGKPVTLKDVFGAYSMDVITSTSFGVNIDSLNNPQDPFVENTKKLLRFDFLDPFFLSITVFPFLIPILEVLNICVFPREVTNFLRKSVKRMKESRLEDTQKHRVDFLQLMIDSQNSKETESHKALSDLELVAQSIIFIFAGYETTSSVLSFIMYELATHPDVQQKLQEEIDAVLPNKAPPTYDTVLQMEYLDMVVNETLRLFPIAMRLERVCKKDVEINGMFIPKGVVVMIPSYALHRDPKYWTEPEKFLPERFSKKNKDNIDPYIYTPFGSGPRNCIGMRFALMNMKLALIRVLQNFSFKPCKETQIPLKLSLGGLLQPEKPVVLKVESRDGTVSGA

Row | C0 ([2]; rats, 1 mg/kg IV) [ng/mL] | AUC(0-inf) ([2]; rats, 1 mg/kg IV) [ng·h/mL] | AUC(0-t) ([2]; rats, 1 mg/kg IV) [ng·h/mL] | half-life [2, 7] [h] | Cmax ([2]; rats, PO, dosage of 3 mg/kg) [ng/mL] | Tmax ([2]; rats, PO, dosage of 3 mg/kg) [h] | AUC(0-t) ([2]; rats, PO, dosage of 3 mg/kg) [ng·h/mL] | bioavailability [2, 8] [%] | CI Mean ([2]; rats, 1 mg/kg IV) [mL/min/kg] | SMILES | IC50 [1] [nM] | Mouse CYP1A1 % eff [1] [%] | inhibition at 10 µM [3] [%] | other results
1 | 199 | 12300 | 2790 | 63 | 40.2 | 8 | 794 | 9.49 | 26 | Cn1cc(-c2nc(-c3ccc(C(F)(F)F)cn3)cc3c(=O)n(CC(C)(C)O)cnc23)cn1 [Compound 103, 3-(2-hydroxy-2-methylpropyl)-8-(1-methyl-1H-pyrazol-4-yl)-6-(5-(trifluoromethyl)pyridin-2-yl)pyrido[3,4-d]pyrimidin-4(3H)-one] |  |  |  | 
2 |  |  |  |  |  |  |  |  |  | O=c1c2cc(-c3ccc(Cl)cc3)nc(-c3cccnc3)c2ncn1[C@H]1COC[C@@H]1O [Compound 125, 6-(4-chlorophenyl)-3-((3S,4R)-4-hydroxytetrahydrofuran-3-yl)-8-(pyridin-3-yl)pyrido[3,4-d]pyrimidin-4(3H)-one] |  |  | 23.8 | 
3 | 663 | 1220 | 1200 | 1.38 | 508 | 1 | 2270 | 65.9 | 228 | O=c1c2cc(-c3ccc(C(F)(F)F)nc3)nc(-c3cccnc3)c2ncn1[C@@H]1COC[C@H]1O [Compound 79] |  |  |  | AUC(0-inf) ([2]; rats, PO, dosage of 3 mg/kg): 2420 ng·h/mL; half-life [2, 9]: 2.53 h
4 |  |  |  |  |  |  |  |  |  | CC(C)(O)Cn1cnc2c(-c3cccnc3)nc(-c3ccc(C(F)(F)F)nc3)cc2c1=O [Compound 9] | 2.7 | ~55 |  | Rat CL (% Qh) ([2]; in vivo DMPK profile): 5.8 % Qh; clearance [2, 4]: 4.1 mL/min/kg; half-life [2, 5]: 5.4 h; Vd [2, 4]: 1.75 L/kg; bioavailability [2, 6]: 77%
5 | 425 | 3050 | 2910 | 5.61 | 152 | 5.33 | 2430 | 27.9 | 91.3 | Cn1cc(-c2nc(-c3ccc(C(F)(F)F)nc3)cc3c(=O)n(CC(C)(C)O)cnc23)cn1 [Compound 60] |  |  |  | 
6 |  |  |  |  |  |  |  |  |  | CC(C)(O)Cn1cnc2c(-c3cccnc3)nc(-c3ccc(Cl)cc3)cc2c1=O [Compound 18] |  |  | 35.2 | 
7 | 411 | 9520 | 4410 | 27.1 | 592 | 6.67 | 11900 | 90.2 | 29.5 | CC(C)(O)Cn1cnc2c(-c3cccnc3)nc(-c3ccc(C(F)(F)F)cn3)cc2c1=O [Compound 105] |  |  |  | 

Row | SMILES | C0 ([2]; rats, 1 mg/kg IV) [ng/mL] | AUC(0-inf) ([2]; rats, 1 mg/kg IV) [ng·h/mL] | AUC(0-t) ([2]; rats, 1 mg/kg IV) [ng·h/mL] | half-life [2, 7] [h] | Cmax ([2]; rats, PO, dosage of 3 mg/kg) [ng/mL] | Tmax ([2]; rats, PO, dosage of 3 mg/kg) [h] | AUC(0-t) ([2]; rats, PO, dosage of 3 mg/kg) [ng·h/mL] | bioavailability [2, 8] [%] | CI Mean ([2]; rats, 1 mg/kg IV) [mL/min/kg] | IC50 [1] [nM] | Mouse CYP1A1 % eff [1] [%] | inhibition at 10 µM [3] [%] | other results
8 | C[C@@H](CO)n1cnc2c(-c3cccnc3)nc(-c3ccc(C(F)(F)F)cn3)cc2c1=O [Compound 46, (S)-3-(1-hydroxypropan-2-yl)-8-(pyridin-3-yl)-6-(5-(trifluoromethyl)pyridin-2-yl)pyrido[3,4-d]pyrimidin-4(3H)-one] | 301 | 2490 | 2350 | 5.65 | 462 | 3.33 | 6280 | 89 | 112 | 18.5 | ~96 | 2.26 | Rat CL (% Qh) ([2]; in vivo DMPK profile): 9 % Qh; clearance [2, 4]: 6.7 mL/min/kg; half-life [2, 5]: 5.6 h; Vd [2, 4]: 3.1 L/kg; bioavailability [2, 6]: 89%; half-life [2, 9]: 5.73 h
9 | C[C@H](n1cnc2c(-c3cnn(C)c3)nc(-c3ccc(Cl)cc3)cc2c1=O)C(C)(C)O [Compound 30] | 311 | 2030 | 2010 | 3.62 | 276 | 3.33 | 3250 | 53.9 | 143 | 2.9 | ~56 | 12.2 | 
10 | C[C@@H](CO)n1cnc2c(-c3cccc(F)c3)nc(-c3ccc(Cl)cc3)cc2c1=O [Compound 7] | 212 | 1000 | 659 | 5.31 | 224 | 3.33 | 2400 | 110 | 295 |  |  |  | Cmax ([2]; rats, PO, dosage of 10 mg/kg): 610 ng/mL; Tmax ([2]; rats, PO, dosage of 10 mg/kg): 3.33 h; AUC(0-t) ([2]; rats, PO, dosage of 10 mg/kg): 7820 ng·h/mL; bioavailability ([2]; rats, PO, dosage of 10 mg/kg, read-out: Bioavailability): 105%
